These results are taken from patent EP4763841A1, “PYRIDAZINONE COMPOUND AND USE THEREOF” (Xi'an Xintong Pharmaceutical Research Co., Ltd., priority 2023, dated 2025).

A short description of data set [1]: Distribution of compounds in major organs after single gavage administration. Type of data set: in vivo, Sprague Dawley rats. To be noted: gavage 5 mg/kg single dose, 1 h and 4 h, SD rats, result in words (FIG. 2). On the procedure:
0.25-0.3 ml of Systemic blood (jugular vein) was taken at each blood collection point to be added into an EDTA-K2 anticoagulant tube, uniform mixing was performed by gentle inversion, and the obtained mixture was stored on crushed ice for transport. Collection plan: PO blood collection point: 1 h and 4 h after administration. Animals were euthanized, tissues and organs were taken, and livers (0.3-0.5 g of liver was taken at a fixed position of a large lobe of liver), kidneys, and hearts were weighed, placed in 5 ml centrifuge tubes, quick-frozen on dry ice, and cryopreserved at -20°C.
A solvent (methanol:acetonitrile:water=25:25:50) was added for grinding and homogenization, and this process was performed rapidly by using a tissue grinder.
A solvent was added to the liver to 3 ml, one large steel ball and one small steel ball were added, and grinding was performed at 50 Hz for 60 s. Vortexing was performed for uniform mixing, and centrifugation was performed at 8000 rpm for 5 min. 0.3 ml of a supernatant was taken, a solvent was added until 3 ml, vortexing was performed for uniform mixing, and centrifugation was performed at 8000 rpm for 5 min. 0.1 ml of a supernatant was taken, 0.2 ml of acetonitrile was added, vortexing was performed for 30 s, and centrifugation was performed at 10000 rpm for 5 min. A supernatant was taken and sent for testing to analyze the drug content. […]

Data set [2] in a line: Comparison of compound metabolites by human liver microsome incubation (LC-MS/MS). To be noted: 10 µM compound, human liver microsome 1.0 mg/mL, β-NADPH 1.0 mM, 37°C, 60 min. The format is in vitro ADME. On the procedure: The purpose of this experiment was to evaluate the comparison of the content of major metabolites of human liver microsome incubated compounds.
Sample treatment: a sample was precipitated with acetonitrile (ACN) containing 0.1% formic acid in a ratio of 1:2, and further centrifuged. A supernatant was dried with a nitrogen flow. A residue was reconstituted in […] of 10% ACN and 90% H2O containing 0.1% formic acid. […] of the reconstituted material was injected into an LC-MS/MS system for analysis.

The test system of the next data set is NASH model of B-DIO mice. Nature of the data set: Efficacy test in NASH model of B-DIO mice (HFD + CCL4). The format is in vivo. To be noted: for area proportion of lipid droplets in the liver (oil red O) compared with the model group G2: Day 26, result in words (FIG. 8); for liver fibrosis (Sirius red) compared with the model group G2: Day 26, result in words (FIG. 9). An excerpt:
An objective of this experiment was to evaluate the pharmacodynamics of compounds of the present invention by using an NASH model of B-DIO mice.
Five C57BL/6 mice on normal diet were assigned to an experimental group G1, and 25 B-DIO mice were randomly assigned to five experimental groups according to the body weight, with 5 mice in each group.
The day of grouping was Day-1, intraperitoneal injection was started on Day 0 in the groups G2-G6 for CCL4 modeling, the concentration of a modeling agent is 0.2 µl/g, the modeling frequency was twice a week, and administration was started on Day 0.
The body weight was measured twice a week after grouping. At the end of the experiment (Day 26), the mice were fasted for 4 h, and non-anticoagulated blood of the mice in the groups G1-G6 was collected and centrifuged, and a serum was taken for blood biochemical testing. Livers in the groups G1-G6 were collected and weighed, 20 mg of the liver was weighed for determination of TC and TG, and the remaining liver was placed in formalin for fixation for pathological observation.

[3] abbreviates: liver, Day 26, 0.3 mg/kg I.G. Q.D., HFD+CCL4, mean±standard error.
The mark [4] stands for this setting: liver, Day 26, 1 mg/kg I.G. Q.D., HFD+CCL4, mean±standard error.
Where [5] appears, read: liver, Day 26, 2 mg/kg I.G. Q.D., HFD+CCL4, mean±standard error.
[6] abbreviates: serum, Day 26, 1 mg/kg I.G. Q.D., HFD+CCL4, mean±standard error.

SMILES strings stand for the structures. Entries after “also recorded” stand apart in the source; their conditions may differ. Marks after values point to notes of the source that are not given here.

With `[2H]C([2H])([2H])C(c1c(C)c(Oc2c(Cl)cc(-n3nc(CF)c(=O)[nH]c3=O)cc2Cl)n[nH]c1=O)C([2H])([2H])[2H]` [Compound 6], the liver distribution entry in data set [1] was “significant liver distribution advantage over Resmetirom and the compound X1; also recorded: significant liver distribution advantage over Resmetirom and a compound X1”. For the same compound, the “Monooxidized metabolite percent content (%)” value in data set [2] is listed as 3.0%; in data set [2] (listed as compound 6), 3%. The “area proportion of lipid droplets in the liver (oil red O) compared with the model group G2” value in the data set with NASH model of B-DIO mice (G4, 0.3 mg/kg) is “decreased significantly”; in the data set with NASH model of B-DIO mice (G5, 1 mg/kg) it was “decreased significantly”; with NASH model of B-DIO mice (G6, 2 mg/kg), “decreased significantly”. Also, the “liver fibrosis (Sirius red) compared with the model group G2” value with NASH model of B-DIO mice (G4, 0.3 mg/kg) is “certain improvement effects on liver fibrosis”; with NASH model of B-DIO mice (G5, 1 mg/kg) it was “certain improvement effects on liver fibrosis”; in the data set on NASH model of B-DIO mice (G6, 2 mg/kg), “certain improvement effects on liver fibrosis”. Further, the “effects of reducing liver fat accumulation and inhibiting liver fibroplasia compared with Resmetirom (G3)” value with NASH model of B-DIO mice (G4-G6 (0.3, 1, 2 mg/kg) versus Resmetirom 3 mg/kg, result in words) is “better effects of reducing liver fat accumulation and inhibiting liver fibroplasia than Resmetirom”. The “decrease of liver TC compared with the model group G2” value in the data set on NASH model of B-DIO mice (group G4, 0.3 mg/kg, Day 26) was determined as 24.9%. Further, in the data set on NASH model of B-DIO mice (group G6, 2 mg/kg, Day 26), the “decrease of liver TG compared with the model group G2” value came to 35.9%. For the same compound, the figures for the “TC” value in the data set on NASH model of B-DIO mice (setting [3]), in the data set on NASH model of B-DIO mice (setting [4]) and in the data set with NASH model of B-DIO mice (setting [5]) were 46.76 ± 1.53 µmol/g, 46.35 ± 1.39 µmol/g and 44.99 ± 1.87 µmol/g, respectively. Besides, the “TG” value with NASH model of B-DIO mice (setting [3]) stood at 59.02 ± 2.79 µmol/g; in the data set with NASH model of B-DIO mice (setting [4]), 54.34 ± 2.45 µmol/g; in the data set on NASH model of B-DIO mice (setting [5]), 54.34 ± 3.54 µmol/g; in the data set with NASH model of B-DIO mice (serum, Day 26, 0.3 mg/kg I.G. Q.D., HFD+CCL4, mean±standard error), 1.03 ± 0.06 mM; with NASH model of B-DIO mice (setting [6]), 1.06 ± 0.07 mM; with NASH model of B-DIO mice (serum, Day 26, 2 mg/kg I.G. Q.D., HFD+CCL4, mean±standard error), 1.06 ± 0.09 mM. In the data set with NASH model of B-DIO mice (setting [6]), the “ALT (U/L)” value was found to be 1080.58±88.36 U/L. The “AST (U/L)” value in the data set with NASH model of B-DIO mice (setting [6]) is listed as 501.72±42.35* *** U/L.
